The source of these data is ChEMBL document CHEMBL3397025, “Guanine-based amphiphiles: synthesis, ion transport properties and biological activity” (Bioorg Med Chem, 2015).

Data set [1] can be described thus: Ionophoric activity in large unilamellar vesicles containing 95:5 egg phosphatidylcholine and egg phosphatidylglycerol assessed as fluorescence emission at 25 degC after 10 mins by HPTS assay in presence of Na+. The class given is ADME.
The nature of data set [2]: Ionophoric activity in large unilamellar vesicles containing 95:5 egg phosphatidylcholine and egg phosphatidylglycerol assessed as fluorescence emission at 25 degC after 10 mins by HPTS assay in presence of K+. The format is ADME.
The subject of the next data set is MCF7. In words: Cytotoxicity against human MCF7 cells assessed as cell viability after 48 hrs by MTT assay. The class given is functional, cell-based. As to conditions: MCF7, 48 h; call rule not given here.
Data set [3] is described as follows: Cytotoxicity against human SH-SY5Y cells assessed as cell viability after 48 hrs by MTT assay. The class given is functional, cell-based.
The subject of the next data set is DU-145. Put plainly: Cytotoxicity against human DU145 cells assessed as cell viability after 48 hrs by MTT assay. As to conditions: DU-145, 48 h. The format is functional, cell-based. A general note: Formazan colour is commonly taken as a measure of viable cells.
The subject of the next data set is HaCaT. Put plainly: Cytotoxicity against human HaCaT cells assessed as cell viability after 48 hrs by MTT assay. The class given is functional, cell-based.
Data set [4] is described as follows: Ionophoric activity in large unilamellar vesicles containing 95:5 egg phosphatidylcholine and egg phosphatidylglycerol assessed as fluorescence emission at 25 degC after 10 mins by HPTS assay in presence of Li+. The class given is ADME.
A short description of data set [5]: Ionophoric activity in large unilamellar vesicles containing 95:5 egg phosphatidylcholine and egg phosphatidylglycerol assessed as fluorescence emission at 25 degC after 10 mins by HPTS assay in presence of Rb+. The class given is ADME.
A short description of data set [6]: Ionophoric activity in large unilamellar vesicles containing 95:5 egg phosphatidylcholine and egg phosphatidylglycerol assessed as fluorescence emission at 25 degC after 10 mins by HPTS assay in presence of Cs+. The class given is ADME.
The nature of data set [7]: Ionophoric activity in large unilamellar vesicles containing 95:5 egg phosphatidylcholine and egg phosphatidylglycerol assessed as fluorescence emission at 25 degC after 10 mins by HPTS assay in presence of F-. The format is ADME.
Data set [8] in a line: Ionophoric activity in large unilamellar vesicles containing 95:5 egg phosphatidylcholine and egg phosphatidylglycerol assessed as fluorescence emission at 25 degC after 10 mins by HPTS assay in presence of Cl-. The format is ADME.
Data set [9] in a line: Ionophoric activity in large unilamellar vesicles containing 95:5 egg phosphatidylcholine and egg phosphatidylglycerol assessed as fluorescence emission at 25 degC after 10 mins by HPTS assay in presence of Br-. The format is ADME.
The nature of data set [10]: Ionophoric activity in large unilamellar vesicles containing 95:5 egg phosphatidylcholine and egg phosphatidylglycerol assessed as fluorescence emission at 25 degC after 10 mins by HPTS assay in presence of I-. The class given is ADME.

Regarding `COCCOCCOCCn1cnc2c(=O)[nH]c(N)nc21`, the Activity result in data set [1] and in data set [2] was “Not Active” each time. Further, the concentration for half-maximal inhibition (IC50) (commonly the concentration that gives 50% inhibition) with MCF7 was above 100000 nM; in data set [3], above 100 µM; in the data set on DU-145 it was above 100 µM; with HaCaT, above 100 µM.

With `Nc1nc2c(ncn2C(=O)CCC(=O)OC[C@H]2O[C@H](O[C@H]3O[C@H](CO)[C@@H](O)[C@H](O)[C@H]3O)[C@H](O)[C@@H](O)[C@@H]2O)c(=O)[nH]1`, the result in data set [1], in data set [2], in [4], in [5], in data set [6] and in data set [7] was Active. The outcome in [8], in data set [9] and in data set [10] was Active. The IC50 with MCF7 stood at 1000 nM; in data set [3] it was 5 µM; with DU-145, 25 µM; in the data set on HaCaT, 80 µM.

Consider `CCCCCCCCCCCCCC(=O)O[C@@H]1[C@H](OC(=O)CCCCCCCCCCCCC)[C@@H](COC(=O)CCC(=O)OC[C@H]2O[C@H](O[C@H]3O[C@H](CO)[C@@H](O)[C@H](O)[C@H]3O)[C@H](O)[C@@H](O)[C@@H]2O)O[C@H]1n1cnc2c(=O)[nH]c(N)nc21`, for which the IC50 in [3] was determined as 17 µM.
